Experimental findings from PubChem BioAssay (NCI) are described below.

Some test systems named below: 786-0 renal; BT-549 breast; EKVX NSCLC; KM12 colon; MOLT-4 leukemia; NCI-H460 lung; PC-3 prostate; SNB-19 CNS; T-47D breast; UACC-62 melanoma.
Common to all, as to assay: NCI-60 cell line screen, 48 h

Molecules are shown by their SMILES.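 In this assay, cells in 96-well plates receive the compound at five concentrations for 48 hours. Endpoints are linearly interpolated between the surrounding concentrations. The concentration for 50% growth inhibition is given as GI50. At the TGI there is no net growth.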

Consider `C[C@]12C3CC[C@@]4(CO)C[C@]3(CCC1[C@](C)(C(=O)O)CC[C@@H]2O)CC4=O` (some centres undefined), for which the GI50 with 786-0 renal, with BT-549 breast, in the assay with EKVX NSCLC, with KM12 colon, in the assay on MOLT-4 leukemia and with NCI-H460 lung was more than 100 µM in each case. For the same compound, the GI50 with PC-3 prostate, with SNB-19 CNS, with T-47D breast and in the assay on UACC-62 melanoma was more than 100 µM each time. In addition, the TGI in the assay on 786-0 renal, with BT-549 breast, in the assay on EKVX NSCLC, in the assay with KM12 colon, in the assay with MOLT-4 leukemia and in the assay with NCI-H460 lung was more than 100 µM in each case. The TGI with PC-3 prostate, in the assay with SNB-19 CNS, with T-47D breast and in the assay with UACC-62 melanoma was more than 100 µM in each case.
For the compound `O=C(Nc1ccc(Cl)cc1)c1cc(S(=O)(=O)Nc2nnc(-c3ccccc3)c(-c3ccccc3)n2)c(SCc2ccccc2)cc1Cl`, the GI50 with 786-0 renal is 23.6 µM; in the assay on BT-549 breast, 34.9 µM; in the assay on EKVX NSCLC it was 32.1 µM; in the assay on KM12 colon, 21.9 µM; in the assay with MOLT-4 leukemia, 17.4 µM; in the assay with NCI-H460 lung it was 25.2 µM. Also, the GI50 was 39.8 µM in the assay with PC-3 prostate, 37.9 µM with SNB-19 CNS, 24.8 µM with T-47D breast and 18.2 µM with UACC-62 melanoma. The TGI was more than 57.8 µM in the assay with 786-0 renal; more than 70.5 µM in the assay on BT-549 breast; more than 63.8 µM with EKVX NSCLC; more than 62 µM in the assay on KM12 colon; more than 60.4 µM with MOLT-4 leukemia; 81.8 µM with NCI-H460 lung. Further, the TGI was more than 100 µM with PC-3 prostate, more than 67 µM with SNB-19 CNS, more than 64.2 µM in the assay on T-47D breast and 39.7 µM in the assay with UACC-62 melanoma.
Consider `COc1ccc(CC(NC(=O)[C@H](C)NC(=O)CN2CCOCC2)C(=O)N[C@@H](Cc2ccccc2)C(=O)[C@@]2(C)CO2)cc1` (some centres undefined), for which the GI50 in the assay with 786-0 renal is 0.364 µM; in the assay with BT-549 breast it was 0.154 µM; in the assay on EKVX NSCLC, 0.469 µM; in the assay on KM12 colon it was 0.162 µM; in the assay with MOLT-4 leukemia, 0.0572 µM; with NCI-H460 lung, 0.422 µM. Also, the GI50 is 0.229 µM with PC-3 prostate, 0.651 µM in the assay with SNB-19 CNS, 0.208 µM in the assay with T-47D breast and 0.182 µM in the assay with UACC-62 melanoma. Further, the TGI in the assay on 786-0 renal was 1.76 µM; with BT-549 breast, 0.391 µM; in the assay on EKVX NSCLC, more than 100 µM; in the assay with KM12 colon, 0.338 µM; with NCI-H460 lung, 1.96 µM; with PC-3 prostate, 0.631 µM. Moreover, the TGI was more than 100 µM in the assay with SNB-19 CNS, 0.482 µM in the assay with T-47D breast and 0.479 µM with UACC-62 melanoma.
For the compound `C1=C(c2ccccc2)SC=C(c2ccccc2)S1`, the TGI was more than 100 µM in the assay with 786-0 renal; 84.8 µM in the assay with BT-549 breast; more than 100 µM in the assay with EKVX NSCLC; more than 100 µM with KM12 colon; more than 100 µM in the assay with MOLT-4 leukemia; more than 100 µM with NCI-H460 lung. Further, the TGI in the assay with PC-3 prostate, with SNB-19 CNS, in the assay with T-47D breast and in the assay with UACC-62 melanoma was more than 100 µM throughout.
As to `COc1ccc(C(=O)COc2cccc(/C=C3\CSc4ccc(Cl)cc4C3=O)c2)cc1`, the GI50 with 786-0 renal was 15.6 µM; in the assay with BT-549 breast, 12.9 µM; in the assay on EKVX NSCLC it was 15.3 µM; in the assay on KM12 colon, 2.28 µM; in the assay with MOLT-4 leukemia, 2.25 µM; in the assay on NCI-H460 lung it was 16.2 µM. Moreover, the GI50 is 3.97 µM in the assay on PC-3 prostate, 6.99 µM in the assay on SNB-19 CNS, 5.4 µM in the assay on T-47D breast and 6.23 µM in the assay on UACC-62 melanoma. Also, the TGI with 786-0 renal was 29.8 µM; with BT-549 breast it was 33.5 µM; in the assay with EKVX NSCLC, 52 µM; with KM12 colon, 5.57 µM; in the assay with MOLT-4 leukemia, 5.53 µM; in the assay on NCI-H460 lung, 34.9 µM. The TGI with PC-3 prostate worked out at 20.4 µM; in the assay with SNB-19 CNS, 20.1 µM; in the assay on T-47D breast, 28.9 µM; in the assay on UACC-62 melanoma, 21 µM.
`C=C1CC2(CCCC3(CC(=C)C(=O)O3)C2(C)C)OC1=O` (centres undefined): the TGI with 786-0 renal amounted to 11.4 µM; in the assay with BT-549 breast, 17 µM; in the assay with EKVX NSCLC it was 18.4 µM; in the assay on KM12 colon, 21.8 µM; with MOLT-4 leukemia, 1.03 µM; in the assay on NCI-H460 lung, 46.3 µM. The TGI stood at 21.1 µM with PC-3 prostate, 32.9 µM in the assay with SNB-19 CNS, 21.3 µM with T-47D breast and 4.65 µM in the assay with UACC-62 melanoma.
Turning to `CC(C)(C)[Si](C)(C)OCC1C=CC(n2cnc3c(N)ncnc32)O1` (centres undefined), the TGI in the assay on 786-0 renal is more than 100 µM; in the assay with BT-549 breast, more than 54.7 µM; in the assay on EKVX NSCLC, more than 100 µM; in the assay with KM12 colon, more than 100 µM; with MOLT-4 leukemia it was 44.4 µM; in the assay on NCI-H460 lung, more than 100 µM. In addition, the TGI in the assay on PC-3 prostate was more than 100 µM; with SNB-19 CNS, more than 100 µM; with T-47D breast, more than 100 µM; in the assay on UACC-62 melanoma, more than 69.5 µM.
For the compound `O=C(Nc1cccc(O)c1)c1cccc(NC2=C(Cl)C(=O)N(Cc3ccccc3)C2=O)c1`, the GI50 with 786-0 renal was 15.2 µM; in the assay with BT-549 breast it was 0.396 µM; in the assay on EKVX NSCLC it was 17.3 µM; with KM12 colon, 11.4 µM; in the assay with MOLT-4 leukemia, 1.04 µM; in the assay with NCI-H460 lung, 36.8 µM. Moreover, the GI50 is 8.29 µM with PC-3 prostate, 18.8 µM in the assay with SNB-19 CNS, 23.5 µM in the assay with T-47D breast and 14.6 µM in the assay with UACC-62 melanoma. Moreover, the TGI in the assay with 786-0 renal was 30.2 µM; with BT-549 breast, 2.05 µM; with EKVX NSCLC, 32.1 µM; in the assay with KM12 colon, 25 µM; with MOLT-4 leukemia it was more than 100 µM; in the assay with NCI-H460 lung, more than 100 µM. Moreover, the TGI in the assay with PC-3 prostate worked out at 25 µM; in the assay with SNB-19 CNS it was 41.4 µM; in the assay on T-47D breast, 60.5 µM; in the assay with UACC-62 melanoma, 28.1 µM.
